Source: US6620820B2, “Inhibitors of bone reabsorption and antagonists of vitronectin receptors” (Hoechst Aktiengesellschaft, priority 1996, dated 2003)

Target: T1, human vitronectin receptor (VnR) αVβ3 (Homo sapiens, UniProt P05106+P06756)
T1 construct: Human vitronectin receptor is isolated from the human placenta using the method of Pytela et al; from tissue; host or cells: human placenta (alternatively 293 cells cotransfected with αV and β3 DNA)
Assay: Inhibition of the binding of Kistrin to human vitronectin receptor (VnR) αVβ3: ELISA test (Kistrin/VnR)
Settings: plates coated with Kistrin, test method 2
Protocol: Nunc Maxisorb 96-well microtiter plates are coated, at 4° C. overnight, with a solution of human vitronectin (0.002 mg/ml, 0.05 ml/well) in PBS (phosphate-buffered sodium chloride solution). The plates are washed twice with PBS/0.05% Tween 20 and blocked by incubating them (for 60 min) with bovine serum albumin (BSA, 0.5%, RIA grade or better) in tris-HCl (50 mM), NaCl (100 mM), MgCl2 (1 mM), CaCl2 (1 mM), MnCl2 (1 mM), pH 7. Solutions of known inhibitors and of the test substances, in concentrations of 2×10^−12−2×10^−6 mol/l, are prepared in assay buffer [BSA (0.5%, RIA grade or better) in tris-HCl (50 mM/l), NaCl (100 mM), MgCl2 (1 mM), CaCl2 (1 mM), MnCl2 (1 mM), pH 7]. The blocked plates are emptied and in each case 0.025 ml of this solution, which contains a defined concentration (from 2×10^−12 to 2×10^−6) of either a known inhibitor or a test substance, is added to each well. 0.025 ml of a solution of the vitronectin receptor in the test buffer (0.03 mg/ml) is pipetted into each well of the plate and the plate is then incubated at room temperature on a shaker for 60-180 min. In the meantime, a solution (6 ml/plate) of a murine monoclonal antibody which is specific for the β3 subunit of the vitronectin receptor is prepared in the assay buffer (0.0015 mg/ml). A second rabbit antibody, which represents an anti-mouse Fc HRP antibody conjugate, is added to this solution (0.001 ml of stock solution/6 ml of the murine mono-clonal anti-β3 antibody solution) and this mixture of the murine anti-β3 antibody and the rabbit anti-mouse Fc HRP antibody conjugate is allowed to incubate while the receptor/inhibitor incubation is in progress. The test plates are washed 4 times with PBS solution containing 0.05% Tween-20 and 0.05 ml of the antibody mixture is in each case pipetted into each well of the plate, which is then incubated for 60-180 min. The plate is washed 4 times with PBS/0.05% Tween-20 and then developed with 0.05 ml/well of a PBS solution which contains 0.67 mg/ml o-phenylenediamine and 0.012% H2O2. Alternatively, o-phenylenediamine can be used in a buffer (pH 5) which contains Na3PO4 (50 mM) and citric acid (0.22 mM). The color development is stopped with 1N H2SO4 (0.05 ml/well). The absorption of each well is measured at 492-405 nm and the data are evaluated using standard methods.
Inhibition of the binding of Kistrin to human vitronectin receptor (VnR) αVβ3: ELISA test
(In the listing of the test results, test method 2 is abbreviated to Kistrin/VnR)
1. Purification of Kistrin
Kistrin is purified using the methods of Dennis et al., as described in Proc. Natl. Acad. Sci. USA 1989, 87, 2471-2475 and PROTEINS: Structure, Function and Genetics 1993, 15, 312-321.
2. Purification of human vitronectin receptor (αVβ3) see test method 1.
3. Monoclonal antibodies see test method 1.
The ability of substances to inhibit the binding of Kistrin to the vitronectin receptor can be elucidated using an ELISA test. For this purpose, Nunc 96-well microtiter plates are coated with a solution of Kistrin (0.002 mg/ml) in accordance with the method of Dennis et al., as described in PROTEINS: Structure, Function and Genetics 1993, 15, 312-321. The subsequent experimental implementation of the ELISA test is as described in test method1, item 4.

T1 sequence (P06756 31-889 limits assumed): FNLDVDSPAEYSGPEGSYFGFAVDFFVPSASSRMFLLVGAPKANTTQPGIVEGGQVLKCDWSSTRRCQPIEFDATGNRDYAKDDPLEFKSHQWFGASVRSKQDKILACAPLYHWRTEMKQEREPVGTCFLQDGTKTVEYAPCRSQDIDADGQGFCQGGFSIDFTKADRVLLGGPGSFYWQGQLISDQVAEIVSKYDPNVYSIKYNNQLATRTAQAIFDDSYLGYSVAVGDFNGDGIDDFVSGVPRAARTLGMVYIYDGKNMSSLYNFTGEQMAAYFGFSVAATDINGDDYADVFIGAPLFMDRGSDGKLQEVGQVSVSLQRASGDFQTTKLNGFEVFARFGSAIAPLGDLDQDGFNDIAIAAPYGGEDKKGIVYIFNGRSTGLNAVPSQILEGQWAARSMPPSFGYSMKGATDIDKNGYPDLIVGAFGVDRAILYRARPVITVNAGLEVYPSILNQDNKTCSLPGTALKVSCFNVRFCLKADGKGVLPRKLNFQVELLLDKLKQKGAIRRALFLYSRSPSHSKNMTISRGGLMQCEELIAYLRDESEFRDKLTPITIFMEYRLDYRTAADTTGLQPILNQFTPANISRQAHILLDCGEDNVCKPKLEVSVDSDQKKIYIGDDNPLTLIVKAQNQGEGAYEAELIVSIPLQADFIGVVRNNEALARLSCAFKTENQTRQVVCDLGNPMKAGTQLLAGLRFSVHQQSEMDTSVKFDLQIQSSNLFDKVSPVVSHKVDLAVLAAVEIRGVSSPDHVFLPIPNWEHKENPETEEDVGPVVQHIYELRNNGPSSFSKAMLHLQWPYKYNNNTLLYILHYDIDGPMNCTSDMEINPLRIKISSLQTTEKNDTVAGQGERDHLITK
T1 sequence (P06756 891-1048 partner limits assumed): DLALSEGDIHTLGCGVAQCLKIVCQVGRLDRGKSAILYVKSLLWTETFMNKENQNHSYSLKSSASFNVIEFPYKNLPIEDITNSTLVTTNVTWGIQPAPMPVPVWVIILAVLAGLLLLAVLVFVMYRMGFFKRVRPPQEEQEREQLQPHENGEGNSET
T1 sequence (P05106 27-788): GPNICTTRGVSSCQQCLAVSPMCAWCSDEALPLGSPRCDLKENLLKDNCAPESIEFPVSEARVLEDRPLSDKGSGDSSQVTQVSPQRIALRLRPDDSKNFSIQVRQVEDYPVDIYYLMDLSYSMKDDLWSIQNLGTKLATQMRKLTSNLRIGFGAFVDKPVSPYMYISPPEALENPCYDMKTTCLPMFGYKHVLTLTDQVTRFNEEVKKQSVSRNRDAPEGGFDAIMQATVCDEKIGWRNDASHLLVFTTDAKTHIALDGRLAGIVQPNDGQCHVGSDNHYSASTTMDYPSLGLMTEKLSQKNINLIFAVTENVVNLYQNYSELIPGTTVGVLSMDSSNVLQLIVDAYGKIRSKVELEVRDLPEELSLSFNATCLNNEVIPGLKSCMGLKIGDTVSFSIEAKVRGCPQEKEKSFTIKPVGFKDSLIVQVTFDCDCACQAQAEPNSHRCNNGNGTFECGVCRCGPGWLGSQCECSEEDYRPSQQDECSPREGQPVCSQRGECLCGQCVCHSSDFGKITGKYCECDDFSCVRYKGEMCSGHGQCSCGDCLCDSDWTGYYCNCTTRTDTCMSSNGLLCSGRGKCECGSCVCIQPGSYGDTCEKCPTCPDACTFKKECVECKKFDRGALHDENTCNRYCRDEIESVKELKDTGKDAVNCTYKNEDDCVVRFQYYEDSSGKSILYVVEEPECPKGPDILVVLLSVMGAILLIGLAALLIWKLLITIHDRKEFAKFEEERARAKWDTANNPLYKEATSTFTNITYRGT

Compared with `O=C(CN1C(=O)N[C@@H](CCCNC2=NCCN2)C1=O)NC[C@H](NC(=O)OCc1ccccc1)C(=O)O` [Example 1, (2S)-Benzoylcarbonylamino-3-[2-((4S)-(3-(4,5dihydro-1H-imidazol-2-ylamino)propyl)-2,5-dioxoimidazolidin-1-yl)acetylamino]propionic Acid], `O=C(CN1C(=O)N[C@@H](CC(=O)NNC2=NCCN2)C1=O)NC[C@H](NC(=O)OCc1ccccc1)C(=O)O` [Example 7, (2S)-Benzyloxycarbonylamino-3-[2-((4S)-(N′-(4,5-dihydro-1H-imidazol-2-yl)-hydrazinocarbonylmethyl]-2,5-dioxoimidazolidin-1-yl)acetylamino]propionic Acid] is 29-fold higher in IC50: 20 nM for the first, 580 nM for the second.

Compared with `N=C(N)NC(=O)NC[C@@H]1NC(=O)N(CC(=O)NC[C@H](NC(=O)OCc2ccccc2)C(=O)O)C1=O` [Example 3, (2S)-Benzyloxycarbonylamino-3-[((4S)-(guanidinoacylaminomethyl)-2,5-dioxoimidazolidin-1-yl)acetylamino]propionic Acid], `N=C(N)NC(=O)CC[C@@H]1NC(=O)N(CC(=O)NC[C@H](NC(=O)OCc2ccccc2)C(=O)O)C1=O` [Example 19, (2S)-Benzyloxycarbonylamino-3-[2-((4S)-(3-guanidino-3-oxopropyl) -2,5-dioxoimidazolidin-1-yl)acetylamino]propionic Acid] is 18-fold lower in IC50: 360 nM for the first, 20 nM for the second. The second is the more potent here.

Going from `O=C(CN1C(=O)N[C@@H](CCCNc2ncccn2)C1=O)NC[C@H](NC(=O)OCc1ccccc1)C(=O)O` [Example 4, (2S)-Benzyloxycarbonylamino-3-[((4S)-(3-(2-pyrimidylamino)propyl)-2,5-dioxoimidazolidin-1-yl)acetylamino]propionic Acid] to `O=C(CN1C(=O)N[C@@H](CCCNc2nc3ccccc3[nH]2)C1=O)NC[C@H](NC(=O)OCc1ccccc1)C(=O)O` [Example 5, (2S)-Benzyloxycarbonylamino-3-[((4S)-(3-(benzimidazolyl-2-amino)-propyl)-2,5-dioxoimidazolidin-1-yl)acetylamino]propionic Acid], the IC50 falls from 1660 nM to 40 nM (42-fold). The second is the more potent here.

Going from `O=C(CN1C(=O)N[C@@H](CC(=O)NNC2=NCCCN2)C1=O)NC[C@H](NC(=O)OCc1ccccc1)C(=O)O` [Example 8, (2S)-Benzyloxycarbonylamino-3-[2-(2,5-dioxo-(4S)-(N′-(1,4,5,6-tetrahydro-pyrimidin-2-yl)hydrazinocarbonylmethyl)imidazolidin-1-yl)acetylamino]propionic Acid] to `O=C(CN1C(=O)N[C@@H](CCc2nc3ccccc3[nH]2)C1=O)NC[C@H](NC(=O)OCc1ccccc1)C(=O)O` [Example 18], the IC50 rises from 130 nM to 810 nM (6.2-fold). The first is the more potent here.

Target: T1, human vitronectin receptor (VnR) αVβ3
Assay: Inhibition of the binding of human vitronectin (Vn) to human vitronectin receptor (VnR) αVβ3: ELISA test (Vn/VnR)
Settings: plates coated with human vitronectin, test method 1
Description: Inhibition of the binding of human vitronectin (Vn) to human vitronectin receptor (VnR) αVβ3: ELISA-Test.
(In the listing of the test results, test method 1 is abbreviated to Vn/VnR)
1. Purification of human vitronectin
Human vitronectin is isolated from human plasma and purified by affinity chromatography using the method of Yatohyo et al., Cell Structure and Function, 1988, 23, 281-292.
2. Purification of human vitronectin receptor (αVβ3)
Human vitronectin receptor is isolated from the human placenta using the method of Pytela et al., Methods Enzymol. 1987, 144, 475. Human vitronectin receptor αVβ3 can also be isolated from some cell lines (for example from 293 cells, a human embryonic kidney cell line) which are cotransfected with DNA sequences for the two subunits, αV and β3, of the vitronectin receptor. The subunits are extracted with octylglycoside and subsequently chromatographed on concanavalin A, heparin-Sepharose and S-300. […]
Nunc Maxisorb 96-well microtiter plates are coated, at 4° C. overnight, with a solution of human vitronectin (0.002 mg/ml, 0.05 ml/well) in PBS (phosphate-buffered sodium chloride solution). […] The absorption of each well is measured at 492-405 nm and the data are evaluated using standard methods.

`O=C(CN1C(=O)N[C@@H](CCCNC2=NCCN2)C1=O)NC[C@H](NC(=O)OCc1ccccc1)C(=O)O` [Example 1, (2S)-Benzoylcarbonylamino-3-[2-((4S)-(3-(4,5dihydro-1H-imidazol-2-ylamino)propyl)-2,5-dioxoimidazolidin-1-yl)acetylamino]propionic Acid] was tested, and the IC50 was 8 nM.
